This passage reports EC50, IC50 and outcome results from PubChem BioAssay AID179 (DTP/NCI, 2004).

Calls of active or inactive are those of the source.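 The calls were made as follows: active = compounds giving half or more protection of infected cells from virus-caused growth loss, again on retest; inactive = the rest.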 Where a SMILES comes first, the peptide text is derived from it. [ ]: non-standard residue; d: D form. The star is where a group is joined. ξ: configuration not given here. ξD = NC(CC(=O)O)C(=O)O; Boc = CC(C)(C)OC(=O)*; Aib = CC(C)(N)C(=O)O; OtBu = CC(C)(C)O*

This assay has as its system CEM cells HIV-1 protection, formazan growth assay. The assay can be described thus: NCI AIDS Antiviral Assay. The following applies: for IC50: measured here: growth of uninfected CEM cells. An outline of the steps: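 Protection of CEM cells against HIV-1 measured as cell growth via soluble formazan read-out, with five concentrations tested on both infected and uninfected cells; failure to protect may reflect toxicity.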

A word on the EC50: it is the midpoint of the concentration-response curve. The term IC50 denotes the concentration that gives 50% inhibition. Low values mean higher potency, high ones lower potency. In the case of `Cc1ccccc1NC(=O)c1[nH]c(=S)nc(N)c1-c1ccccc1C`, the EC50 was over 97.7 µM and the IC50 was over 97.7 µM. Turning to `O=C1C/C(Br)=C\c2ccccc2-c2ccccc21`, the EC50 was over 1.12 µM and the IC50 is 0.389 µM. The like results for `NC1=C(O)/C(=N/NS(=O)(=O)c2ccccc2)C(c2ccc3c(c2)OCO3)O1` (stereo not given) were, in that order, over 3.72 µM and over 3.72 µM. Regarding `O=C(NC(=O)c1cn(CCN(CCO)C(=O)NCCCCCCNC(=O)N(CCO)CCn2cc(C(=O)NC(=O)OCc3ccccc3)c(=O)[nH]c2=O)c(=O)[nH]c1=O)OCc1ccccc1`, the outcome was inactive.

As for `Cc1cc(OCC(=O)N/N=C/C(Br)=C/c2ccccc2)nc(SCC(=O)N/N=C/C(Br)=C/c2ccccc2)n1`, the EC50 is over 200 µM and the IC50 amounted to 17.8 µM. Turning to `NC(CCCC(N)P(=O)(O)O)P(=O)(O)O` (stereo not given), the outcome was inactive. Take `O=S1(=O)Cc2nc3ccccc3n2C1c1c(F)cccc1F` (stereo not given): the concentration giving a half-maximal response (EC50) is 29.5 µM and the IC50 stood at 75.9 µM.

For the molecule `COc1ccccc1-n1c(NN)nc2ccc(Br)cc2c1=O`, the EC50 is over 138 µM and the IC50 is 30.9 µM.

Consider `COc1ccc(/C=C(\C(=O)OCC(C)C)c2ccc(OC)c(OC)c2)cc1OC`, for which the EC50 was over 200 µM and the IC50 amounted to 166 µM. Taken in the same sequence, the figures for `NC(=S)N/N=C/c1ncccc1O` were over 12.6 µM and 0.794 µM. In the case of `CCOC(=O)c1nc(-c2ccccc2)c(-c2ccccc2)c(-c2ccccc2)c1C`, the EC50 was over 5.13 µM and the IC50 was over 5.13 µM. Regarding `CN(C)c1ccc(/C=C2\CC(C)(C)c3ccccc3C2=O)cc1`, the EC50 is over 2 µM and the IC50 came out at 0.363 µM. `CCC[CH2][Sn]([CH2]CCC)([O]C(=O)c1cc(OC)c(OC)cc1OC)[O][Sn]([CH2]CCC)([CH2]CCC)[O]C(=O)c1cc(OC)c(OC)cc1OC`: the EC50 was over 11 µM and the IC50 was found to be 0.302 µM. Consider `COC(=O)c1ccccc1SSc1ccccc1C(=O)OC`, for which the EC50 was over 200 µM and the IC50 stood at 18.6 µM. The like results for `Oc1ccc(Oc2cc3c(cc2Oc2ccc(O)cc2)-c2nc-3nc3[nH]c(nc4nc(nc5[nH]c(n2)c2cc(Oc6ccc(O)cc6)c(Oc6ccc(O)cc6)cc52)-c2cc(Oc5ccc(O)cc5)c(Oc5ccc(O)cc5)cc2-4)c2cc(Oc4ccc(O)cc4)c(Oc4ccc(O)cc4)cc32)cc1` were, in that order, over 50.1 µM and 22.9 µM. Consider `C/C(CC(=O)Nc1ccc(C)c(C)c1)=N\N(c1ccccc1)c1ccccc1`, for which the EC50 was over 97.7 µM and the IC50 was over 97.7 µM. In the case of `COC(=O)C1=C(C)NC2=C(C(=O)c3ccccc32)C1c1cn[nH]c1-c1ccccc1` (stereo not given), the EC50 was over 20 µM and the IC50 was over 20 µM. As to `O=C1CCc2cc3c(cc21)C(C(=O)O)CC3` (stereo not given), the EC50 was over 200 µM and the IC50 is over 200 µM. Take `COC(=O)C1=C(C)N2[C@H](C(=O)O)CS[C@@]2(C)[C@H](C(=O)OC)[C@H]1c1cccc([N+](=O)[O-])c1`: the EC50 is over 200 µM and the IC50 turned out to be 148 µM. On to `O=c1c(O)c(-c2ccc(Cl)cc2)oc2ccccc12`, for which the EC50 was over 200 µM and the IC50 was found to be 4.07 µM. Consider `CCOC(=O)C(C)c1nc2cc(C(F)(F)F)ccc2[nH]c1=O` (stereo not given), for which the EC50 was over 200 µM and the IC50 was determined as 81.3 µM.

Take `CC(=O)Nc1ccc(/C=N/NC(=S)NC2CN3CCC2CC3)cc1` (stereo not given): the EC50 was over 200 µM and the IC50 was over 200 µM. Regarding `CCCC(=O)N[C@@H](Cc1cc(I)c(O)c(I)c1)C(=O)NCCCNCCCCNCCCNC(=O)[C@@H](N)CCCN=C(N)N`, the EC50 is over 100 µM and the IC50 stood at 44.7 µM. The like results for `Cc1ccc(/C=N/NC2=NCCN2)s1` were, in that order, over 200 µM and 166 µM. On to `COc1ccc2c(c1)CCc1c(C(C)=O)c3ccccc3n1C2`, for which the EC50 was over 58.9 µM and the IC50 was over 58.9 µM. With `O=C1C2C=CC(n3[nH]c(=O)n(Cc4ccccc4)c3=O)CC2C(=O)N1c1cccc(Cl)c1` (stereo not given), the EC50 was over 398 µM and the IC50 is over 398 µM. Regarding `COc1ccc(NC(=O)CC(=O)NN2C(=O)/C(=C/c3ccc(N(CCC#N)CCC#N)cc3C)N=C2/C=C\c2ccccc2)cc1`, the outcome was inactive.

Turning to `O=S(=O)(O)c1ccc(N/N=C/c2ccccc2)cc1`, the EC50 was over 832 µM and the IC50 amounted to 794 µM. For the molecule `CC1(C)CC(=O)c2c(nc3c(ccc4ccccc43)c2-c2ccc(NC(=O)CCCCCCCCC(=O)Nc3ccc(-c4c5c(nc6c4ccc4ccccc46)CC(C)(C)CC5=O)cc3)cc2)C1`, the EC50 was over 100 µM and the IC50 is over 100 µM. For the molecule `C[n+]1c(-c2ccc(/C=N/NC(=N)N/N=C/c3ccc(-c4cn5cc(Cl)ccc5[n+]4C)cc3)cc2)cn2cc(Cl)ccc21`, the EC50 is 6.46 µM and the IC50 is 155 µM. Consider `COC(=O)C(C)(C)NC(=O)C(C)(C)NC(=O)C(CC(=O)OC(C)(C)C)NC(=O)OC(C)(C)C` (stereo not given) (Boc-[ξD](OtBu)-[Aib]-[Aib]-OMe), for which the EC50 was over 200 µM and the IC50 is over 200 µM. For the molecule `CCOC(=O)C12C3CCC1C2C(=O)C3` (stereo not given), the result was inactive. Turning to `CN(Cc1ccccc1)c1cc(=O)n(C)c(=O)[nH]1`, the EC50 is over 200 µM and the IC50 was over 200 µM.

Regarding `CC1(C)NC(=O)[C@]2(C[C@@H](O)C=C2CO)O1`, the EC50 is over 200 µM and the IC50 was over 200 µM.

`CC(C)(O)[C@@H]1CC[C@@]2(C)CCCC(O)C2(O)C1` (stereo not given in full): the result was inactive. Take `CC(=O)O[C@H]1CC[C@H]2[C@@H]3CCC4=C/C(=N/OCCN(C)C)CC[C@]4(C)[C@H]3CC[C@]12C`: the EC50 was over 200 µM and the IC50 is 0.955 µM. The like results for `N#Cc1c(NC(=O)CN2CCOCC2)c(C(=O)Nc2ccccc2)n2c1CCC2` were, in that order, over 200 µM and over 200 µM. For `Cn1c(=O)nc2n(-c3ccc(Cl)cc3Cl)c3ccccc3nc-2c1=O`, the outcome was inactive. With `CSc1nc(=S)[nH]c2n[nH]c(C)c12`, the EC50 is over 200 µM and the IC50 was over 200 µM.

As for `CNC(=O)O/N=C/c1cccc(/C=N/OC(=O)NC)c1`, the EC50 is over 200 µM and the IC50 was over 200 µM. Consider `COc1ccc(-n2cc3c(c2)C(=O)OC3=O)cc1OC`, for which the result was inactive. For the molecule `COc1ccc2[nH]c(=O)c(C(C)=O)c(O)c2c1`, the EC50 was over 200 µM and the IC50 was over 200 µM.

For `Nc1[nH]c(=S)c2c(N)n[nH]c2c1C(=O)Nc1ccc(Cl)cc1`, the EC50 is over 200 µM and the concentration for half-maximal inhibition (IC50) came out at 1.55 µM. As to `CCOC(=O)/C(=C\c1ccc(Cl)cc1)[Se]c1ccccc1`, the EC50 is over 97.7 µM and the IC50 is over 97.7 µM.

Turning to `Cc1ccc(S(=O)(=O)OC(C=O)C(O)C(O)COC(c2ccccc2)(c2ccccc2)c2ccccc2)cc1` (stereo not given), the EC50 was over 24.5 µM and the IC50 was over 24.5 µM.

Consider `CC1(C)[C@@H]2C[C@H]1C(Cc1ccccc1C[C@H]1c3cc(-c4ccccn4)ncc3[C@H]3C[C@@H]1C3(C)C)c1cc(-c3ccccn3)ncc12` (stereo not given in full), for which the EC50 was over 200 µM and the IC50 turned out to be 0.316 µM.

Regarding `O=S1(=O)CC2C3C=CC(O3)C21` (stereo not given), the EC50 was over 1450 µM and the concentration for half-maximal inhibition (IC50) is over 1450 µM.

For `COc1ccccc1N/N=c1\c2nc3ccccc3nc1n(-c1ccccc1C)c(=S)n2-c1ccccn1`, the EC50 was over 200 µM and the IC50 is over 100 µM. With `CC(=O)Nc1cc(N=Nc2ccc(N=Nc3ccc(NC(=O)c4ccc(N)cc4)cc3C)cc2C)c(S(=O)(=O)O)cc1N=Nc1ccc(C(=O)O)cc1`, the EC50 was over 123 µM and the IC50 was determined as 115 µM. In the case of `CCCCC1C(=O)N2c3ccccc3-c3ccccc3N2C1=O`, the outcome was inactive. `CCc1c(CN)c(CC)c(CNC2=NCCN2)c(CC)c1CNC1=NCCN1`: the EC50 was over 200 µM and the IC50 was over 200 µM. Regarding `CN(NC(=O)/C(=C/c1ccc(Cl)cc1)NC(=O)c1ccccc1)c1cn[nH]c(=O)c1Cl`, the EC50 was over 200 µM and the IC50 was 6.92 µM. For the molecule `CC(C)(C)[Si](C)(C)OC[C@H]1O[C@@H](n2ccc(=O)[nH]c2=O)C[C@]12CCN(O)CO2`, the EC50 was over 200 µM and the IC50 stood at 105 µM. For the molecule `Cc1cn(C2CC=C(CO)CC2)c(=O)[nH]c1=O` (stereo not given), the EC50 was over 1050 µM and the IC50 was over 1050 µM. On to `Cc1cc2c(c(=O)[nH]1)C(=O)OC2`, for which the EC50 was over 1100 µM and the IC50 was over 1100 µM. Turning to `NC(N)=N/N=C/c1oc(-c2ccc(S(=O)(=O)O)o2)c(-c2ccc(S(=O)(=O)O)o2)c1[N+](=O)[O-]`, the EC50 was over 513 µM and the IC50 is over 513 µM.

As to `CC12CCCC3(CC(=O)C(C)(C)C3C(=O)C1)C2` (stereo not given), the EC50 was over 200 µM and the IC50 is over 200 µM. For the molecule `O=c1c2ccccc2n2c(-c3ccccc3O)nnc2n1-c1ccccc1`, the EC50 was over 200 µM and the IC50 is over 200 µM. Turning to `CN(C)CCNC(=O)C1COc2cc(-c3cc(=O)c4ccccc4o3)ccc2O1` (stereo not given), the outcome was inactive. Take `COC(=O)C1=CC2C(=O)c3ccccc3C1(c1ccccc1)N2C1CCCCC1` (stereo not given): the EC50 was over 200 µM and the IC50 amounted to 21.4 µM. `Cc1c2c(n(CCc3ccc(Cl)cc3)c1C)NN=C(C#N)S2(=O)=O`: the EC50 is over 200 µM and the IC50 was 85.1 µM. On to `CCOC(=O)C(C(=O)OCC)C(=S)NC1OC(COC(C)=O)C(OC(C)=O)C(OC(C)=O)C1OC(C)=O` (stereo not given), for which the EC50 was over 200 µM and the IC50 is over 200 µM. `CC(C)(C)[Si](C)(C)OCC1OC(n2ccc(=O)[nH]c2=O)C(O[Si](C)(C)C(C)(C)C)/C1=C/C(N)=N\O` (stereo not given): the EC50 is over 200 µM and the IC50 was found to be 9.12 µM. Taken in the same sequence, the figures for `CN(/N=C(\C(=O)O)c1ccccc1)C1=NCCCN1` were over 200 µM and over 200 µM. On to `C=C1N(S(=O)(=O)c2ccc(C)cc2)C(=O)OCC12CCCC2`, for which the EC50 is over 200 µM and the IC50 came to 44.7 µM.

As for `CC(C)C(C=O)C(O)(C(F)(F)F)C(F)(F)F` (stereo not given), the EC50 is over 200 µM and the IC50 is over 200 µM. With `c1ccc(CSc2ccc3nncc(SCc4ccccc4)c3c2)cc1`, the EC50 is over 57.5 µM and the IC50 is over 57.5 µM.
